{"source": "paper PMC10610379", "about": "“Epidrugs as Promising Tools to Eliminate Plasmodium falciparum Artemisinin-Resistant and Quiescent Parasites” (Pharmaceutics, 2023)", "key": {"[1]": {"tested_on": "Plasmodium falciparum F32-TEM (artemisinin-sensitive twin line)", "assay": "Standard chemosensitivity assay (SYBR Green I), F32-TEM", "assay_type": "cell-based", "details": "Plasmodium falciparum; F32-TEM, 48 h incubation, SYBR Green I; mean ± SEM of 3 experiments (* mean of 2); read-out: Antiplasmodial Activity: IC50, F32-TEM", "method_in_brief": "(§1)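 Both parasite lines grown at 2% hematocrit in human red cells with 5% human serum, 37 °C, 5% CO2, then exposed to drug for 48 h in triplicate.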"}, "[2]": {"tested_on": "Plasmodium falciparum F32-ART (artemisinin-resistant strain)", "assay": "Standard chemosensitivity assay (SYBR Green I), F32-ART", "assay_type": "cell-based", "details": "for IC50: Plasmodium falciparum, F32-ART, 48 h incubation, SYBR Green I, mean ± SEM of 3 experiments (* mean of 2), read-out: Antiplasmodial Activity: IC50, F32-ART; for Selectivity Index CC50/IC50: ratio cytotoxicity (mammalian cell type of the CC50)/antiplasmodial activity on F32-ART", "method_in_brief": "as §1"}, "[3]": {"tested_on": "Jurkat", "details": "read-out: Cytotoxicity: CC50 (Jurkat), data from literature ref 41; cited from earlier work"}, "[4]": {"tested_on": "H4ac4", "assay": "Immunoblotting, histone mark abundance in F32-ART parasites", "assay_type": "cell-based, Plasmodium falciparum", "details": "90nM", "method": "(§2) Abundance of methylated and acetylated histone was determined in parasite cultures in different conditions: “not-treated”, “DHA 24 h”, “DHA 6 h/DHA 24 h” and “DHA 6 h/DHA + compound to be tested 24 h”. At the end of the treatments, parasite cultures were washed in RPMI-1640 and then twice in PBS 1× before red blood cell lysis with 0.075% saponin (Sigma-Aldrich) in PBS. Parasite ghosts were washed 3 times in PBS before incubating the ghosts with E1A lysis buffer (50 mM Hepes pH 7.5; 250 mM NaCl; 5 mM EDTA; 0.1% Triton X-100, 1 mM DTT, 0.2 mM PMSF supplemented with complete Mini EDTA-free protease inhibitor cocktail (Roche®, Basel, Switzerland)) for 15 min. Ghosts were then sonicated for 3 × 15s ON/OFF cycles to shear parasite membranes. Debris were pelleted by centrifuging for 15 min at 13,800× g and 4 °C, and supernatants (containing parasitic proteins) were then collected. Protein concentrations were determined using BCA assay (Bio-Rad, Hercules, CA, USA) according to the manufacturer’s instructions. For each sample, 10 µg of proteins were mixed with 4× sample buffer (10 mL 50% Glycerol, 5 mL 0.5 M Tris HCl pH 6.8, 4 mL 20% SDS, 0.02% Bromophenol blue for a total solution volume of 20 mL) and 100 mM DTT and then separated on 15% SDS-PAGE gels in Laemmli running buffer. Gels were then wet-transferred O/N at 20 V onto PVDF membranes. Membranes were blocked in TBST for 1 h at room temperature. Bottom parts were then probed with histone antibodies while upper parts were probed with PFALDOLASE antibody (Abcam, ab38905, Cambridge, UK) at 1:20,000 dilution. The following primary antibodies were used: anti-H3K4me1 (Abcam, ab8895); anti-H3K4me2 (Abcam, ab35356); anti-H3K9me2 (Abcam, ab1220); anti-H3K9me3 (Millipore, 07-442, Burlington, MA, USA); anti-tetra-acetyl H4 (Millipore, 06-866); anti-H4K8Ac (Millipore, 07-328); anti-H4K20me3 (Abcam, ab9053); anti-H3K4me3 (Diagenode) and anti-H3K9Ac (Millipore, 07-352) at 1:10,000. The following secondary antibodies were used: anti-rabbit IgG-Peroxidase produced in goat (Sigma-Aldrich) or anti-mouse IgG-Peroxidase (Sigma-Aldrich); at 1:20,000 dilutions. Blots were developed using ECL Prime Western Blotting (GE Healthcare, Chicago, IL, USA) and read on a Chemidoc touch imaging software. Densitometry analysis was performed by using ImageLab software from Bio-Rad. To determine if variations in histone abundances were statistically significant, immunoblotting experiments were performed on 3 biological replicates and each run was performed twice."}, "[5]": {"tested_on": "H4K8ac", "assay": "Immunoblotting, histone mark abundance in F32-ART parasites", "assay_type": "cell-based, Plasmodium falciparum", "details": "90nM", "method": "as §2"}, "[6]": {"tested_on": "ART-resistant parasites F32-ART at the quiescent stage", "assay": "Modified QSA, 24-h exposure", "assay_type": "cell-based, Plasmodium falciparum", "details": "DHA 700 nM, compound at its IC90, 24-h exposure", "method": "Epidrugs were tested at their IC90 values. In the present study, quiescence was induced using 3 µM of ART or 700 nM of DHA [28]. Thus, D-sorbitol synchronized ring-stage parasites at 3% parasitemia and 2% hematocrit (5 mL of culture per well in 6-well plates) were first exposed to 6 h of ART or DHA to induce quiescence and then to 48 h of the combination “ART or DHA + compound to be tested”. The combinations “ART 6 h/ART 48 h” or “DHA 6 h/DHA 48 h” were used as controls. The compounds were evaluated, in parallel, on proliferating parasites, i.e., without any pre-treatment. […] The parasitemia for each condition was then microscopically monitored every 2 days. […] When relevant, statistical significance between results obtained for the conditions “ART/ART” and “ART/ART + compound to be tested” or “DHA/DHA” and “DHA/DHA + compound to be tested” was determined by a Log Rank (Mantel Cox) test using GraphPad Prism version 7.05. […]\nTo collect enough material for immunoblotting, we performed the analysis after a 24-h exposure of DHA-treated parasites to the epidrug and in parallel evaluated the activity of the three epidrugs in a modified QSA, in which quiescent parasites were exposed to the drug to be tested for 24 instead of 48 h, as in our previous experiments (Figure 2)."}, "[7]": {"tested_on": "ART-resistant parasites F32-ART at the quiescent stage", "assay": "Quiescent-stage Survival Assay (QSA), 48-h exposure", "assay_type": "cell-based, Plasmodium falciparum", "method": "The sensitivity of the ART-resistant parasites F32-ART at the quiescent stage towards the different molecules was determined using the QSA (Quiescent-stage Survival Assay), as previously described.\nEpidrugs were tested at their IC90 values. In the present study, quiescence was induced using 3 µM of ART or 700 nM of DHA [28]. Thus, D-sorbitol synchronized ring-stage parasites at 3% parasitemia and 2% hematocrit (5 mL of culture per well in 6-well plates) were first exposed to 6 h of ART or DHA to induce quiescence and then to 48 h of the combination “ART or DHA + compound to be tested”. The combinations “ART 6 h/ART 48 h” or “DHA 6 h/DHA 48 h” were used as controls. The compounds were evaluated, in parallel, on proliferating parasites, i.e., without any pre-treatment. After drug exposure, parasite cultures were washed with 40 mL of RPMI-1640 medium and cultured in drug-free conditions supplemented with 10% human serum in new wells. The parasitemia for each condition was then microscopically monitored every 2 days. Culture media were renewed twice a week and 25 µL of fresh red blood cells were added once a week. Obtained data were used to perform Kaplan–Meier survival analyses considering censored data. The outcome was defined as the day when parasite cultures reached the initial parasitemia (3%) and data were considered as censored if no parasite recrudescence was observed during the 30-day experiment timeframe. When relevant, statistical significance between results obtained for the conditions “ART/ART” and “ART/ART + compound to be tested” or “DHA/DHA” and “DHA/DHA + compound to be tested” was determined by a Log Rank (Mantel Cox) test using GraphPad Prism version 7.05. For the best compounds targeting histones, in order to compare western blots data, modified QSAs were carried out by comparing “DHA 6 h/DHA 24 h” versus “DHA 6 h/DHA + compound to be tested 24 h”."}, "[8]": {"tested_on": "661W", "design": "method as in PMID 29048427", "details": "data from literature ref 44, read-out: Cytotoxicity: CC50 (661W); cited from earlier work"}, "[9]": {"details": "24 h, F32-ART ring stage proliferating, 3 replicates (Fig 3A)"}, "[10]": {"details": "DHA 6 h/DHA + apicidin 24 h, F32-ART DHA-treated parasites, 3 replicates (Fig 3E)"}}, "note": "“And” between values parts separate entries of the source, which are not always exact repeats. Equal values may be shown once."}
{"smiles": "CCC(=O)CCCCC[C@@H]1NC(=O)[C@H]2CCCCN2C(=O)[C@H]([C@@H](C)CC)NC(=O)[C@H](Cc2cn(OC)c3ccccc23)NC1=O", "note": "[Apicidin]", "values": [{"measurement": "IC50", "setting": "[1]", "result": "0.036 ± 0.005", "unit": "µM"}, {"measurement": "IC50", "setting": "[2]", "result": "0.036 ± 0.009", "unit": "µM"}, {"measurement": "Selectivity Index CC50/IC50", "setting": "[2]", "result": 280}, {"measurement": "CC50", "setting": "[3]", "result": 10, "unit": "µM"}, {"measurement": "Fold change of H4ac4 abundance, apicidin vs DMSO", "setting": "[4]; [9]", "result": "increase and 1.70 and 1.40 and 1.39"}, {"measurement": "Fold change of H4ac4 abundance, apicidin, quiescent stage", "setting": "[4]; [10]", "result": "increase and 2.21 and 2.92 and 2.08"}, {"measurement": "Fold change of H4K8ac abundance, apicidin vs DMSO", "setting": "[5]; [9]", "result": "0.98 and 1.16 and 0.96"}, {"measurement": "Fold change of H4K8ac abundance, apicidin, quiescent stage", "setting": "[5]; [10]", "result": "increase and 1.81 and 2.83 and 2.40"}, {"measurement": "Recrudescence in modified QSA, DHA 6 h/DHA + compound 24 h vs DHA 6 h/DHA 24 h", "setting": "[6]", "result": "no difference in recrudence time"}, {"measurement": "Delay in parasite recrudescence time (difference between median recrudescence times), ART/ART + compound vs ART/ART", "setting": "[7]; quiescence induced with ART 3 µM 6 h, then 48 h ART + compound at its IC90", "result": 8, "unit": "days"}, {"measurement": "Delay in recrudescence time, DHA/DHA + compound vs DHA/DHA", "setting": "[7]; quiescence induced with DHA 700 nM 6 h, then 48 h DHA + compound at its IC90", "result": "slightly shorter delay"}]}
{"smiles": "CN1CCc2c(c3ccccc3n2Cc2ccc(C(=O)NO)cc2)C1", "note": "[Tubastatin A]", "values": [{"measurement": "IC50", "setting": "[1]", "result": 8, "unit": "µM"}, {"measurement": "IC50", "setting": "[2]", "result": 7, "unit": "µM"}, {"measurement": "Selectivity Index CC50/IC50", "setting": "[2]", "result": ">1.4"}, {"measurement": "CC50", "setting": "[8]", "result": "> 10", "unit": "µM"}]}
